Starred links: 1 amine or outer side, 2 acyl side, 3 side chain; linkers in the order of their positions; H or OH if unused. Positions of bridges follow the written chain, without caps; N, C: chain ends. Non-standard residues stand in square brackets, D forms with d. Residues, ends and D or L forms follow the SMILES beside them. Groups on a side chain read outwards from the residue. *: point of attachment. Trp(5-F) = N[C@@H](Cc1c[nH]c2ccc(F)cc12)C(=O)O; Phe(4-CH2NH2) = NCc1ccc(C[C@H](N)C(=O)O)cc1; X13 = O=C(CCCCc1cccc(CCCCN[*:1])c1)[*:2]; γGlu = O=C(O)[C@H](CCC(=O)[*:2])N[*:1]; X23 = CC[C@@]1(C(=O)[*:2])CCCN1[*:1]; mXylylene = c1cc(C[*:1])cc(C[*:2])c1; Palmitoyl = CCCCCCCCCCCCCCCC(=O)*; αMeP = C[C@@]1(C(=O)O)CCCN1; AEEA = NCCOCCOCC(=O)O; Ac3c = NC1(C(=O)O)CC1; Mpa = O=C(O)CCS
Key:
Assay type in all cases: binding
PCSK9 [1] = biological target: T1, PCSK9 (Homo sapiens (Human), UniProt Q8NBP7); assay: PCSK9 Alexa FRET Standard assay (displacement of AlexaFluor647 tagged cyclic peptide Reagent A); conditions: 0.5 nM PCSK9, 20 nM AF cyclic peptide Reagent A
In short: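 TR-FRET displacement: 0.5 nM biotinylated PCSK9 with 1.25 nM Strep-Eu and 20 nM AlexaFluor-tagged cyclic peptide (final) in 50 mM HEPES pH 7.4, 0.15 M NaCl, 5 mM CaCl2, 0.01% BSA, 0.01% P20, ≥2 h at room temperature. IC50 from sigmoidal fit, converted to Ki via peptide KD; falling Eu counts flagged false positives.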

PCSK9 [2] = biological target: T1, PCSK9; assay: PCSK9 Alexa FRET Plus assay (displacement of AlexaFluor647 tagged cyclic peptide Reagent B); conditions: 0.5 nM PCSK9, 960 nM AF cyclic peptide Reagent B
Protocol: A solution containing 1 nM biotinylated PCSK9+2.5 nM Lance Streptavidin Europium (Strep-Eu) was made in 50 mM HEPES pH 7.4, 0.15 M NaCl, 5 mM CaCl2), 0.01% BSA, and 0.01% Surfactant P20. A separate solution containing 1920 nM of the AlexaFluor tagged cyclic peptide was made in the same buffer system. An Echo was used to transfer 0.075 ul of compound plus 0.675 ul of DMSO to each well of an assay plate followed by the addition of 15 ul of PCSK9+Stept-Eu and 15 ul of AF peptide. The final assay volume was 30.750 ul containing 0.5 nM PCSK9, 1.25 nM Strep-Eu, and 960 nM AF cyclic peptide. The reaction was incubated at room temperature for at least two hours prior to fluorescence measurements using an Envision Multilabel Reader. IC50 values were determined by fitting data to a sigmoidal dose-response curve using nonlinear regression. Ki was then calculated from the IC50 and the KD of AF cyclic peptide. Counts (B-counts) of the europium-labeled PCSK9 were followed to observe if compounds were adversely affecting PCSK9. A fall off of the B-counts likely indicated a false positive of inhibition. Data from this procedure was reported as “P=‘numerical value’ (nanomolar)”

[3] = biological target: human PCSK9 / human LDLR EGFa domain interaction (Homo sapiens (Human), UniProt Q8NBP7); assay: TR-FRET assay of inhibition of the PCSK9-LDLR protein-protein interaction; conditions: TR-FRET, 20 nM human PCSK9, 20 nM human LDLR EGFa domain, 2 hours room temperature; read-out: IC50
In short: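 Readout is the TR-FRET signal between europium anti-6×His on his-tagged LDLR EGFa domain and Ulight streptavidin on biotinylated PCSK9, both proteins at 20 nM and both detection reagents at 5 nM. Incubation lasted 2 hours at room temperature; compounds were run in dose-response with a 4-parameter fit.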

[4] = PCSK9 Alexa FRET Standard assay, read-out: IC50
[5] = Alexa FRET Plus, read-out: IC50

Sequence of human PCSK9 / human LDLR EGFa domain interaction (Q8NBP7 153-692): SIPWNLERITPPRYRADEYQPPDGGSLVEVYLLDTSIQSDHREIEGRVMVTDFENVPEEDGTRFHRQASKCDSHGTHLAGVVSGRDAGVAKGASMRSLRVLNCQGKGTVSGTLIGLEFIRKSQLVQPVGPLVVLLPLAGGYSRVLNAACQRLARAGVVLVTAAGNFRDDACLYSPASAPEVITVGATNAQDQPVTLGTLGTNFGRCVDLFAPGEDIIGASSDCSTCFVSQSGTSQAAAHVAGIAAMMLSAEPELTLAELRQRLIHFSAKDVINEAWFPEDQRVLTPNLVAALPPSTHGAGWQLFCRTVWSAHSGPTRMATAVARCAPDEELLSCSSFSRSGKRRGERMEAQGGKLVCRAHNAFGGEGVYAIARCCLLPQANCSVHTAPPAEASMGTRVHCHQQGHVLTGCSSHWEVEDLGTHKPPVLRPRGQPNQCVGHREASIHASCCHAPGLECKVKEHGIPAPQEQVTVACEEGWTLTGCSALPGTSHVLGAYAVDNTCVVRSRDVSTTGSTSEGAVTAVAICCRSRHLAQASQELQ
Sequence of human PCSK9 / human LDLR EGFa domain interaction (Q8NBP7 31-152 partner): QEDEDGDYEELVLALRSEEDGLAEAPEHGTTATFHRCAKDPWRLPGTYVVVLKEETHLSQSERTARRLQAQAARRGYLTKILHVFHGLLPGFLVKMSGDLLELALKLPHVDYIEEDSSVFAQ
T1 sequence (Q8NBP7 153-692): as the sequence (Q8NBP7 153-692) above

Row | Compound | IC50 (PCSK9 [1]; [4]) | IC50 (PCSK9 [2]; [5]) | IC50 (PCSK9 [1]; IC50, PCSK9 Alexa FRET Standard assay) | IC50 (PCSK9 [2]; IC50, Alexa FRET Plus) | IC50 [3]
1 | C[C@@]12CCCN1C(=O)[C@H](Cc1ccc(O)cc1)NC(=O)CN1C(=O)[C@H](N=C(c3ccccc3)c3ccccc31)NC(=O)[C@H](Cc1c[nH]c3ccc(F)cc13)NC(=O)[C@H](Cc1c[nH]c3ccc(F)cc13)NC(=O)CNC(=O)[C@H](CCCCN)NC(=O)CCSCc1cccc(c1)CSC[C@@H](C(N)=O)NC2=O [Compound 121] |  |  | 0.11 to 100 nM | 0.1 to 100 nM | 
2 | COc1ccc(C[C@@H]2NC(=O)[C@H]([C@@H](C)O)NC(=O)[C@@H]3CSCc4cccc(c4)CSC[C@H](NC(=O)[C@@H](C)NC(=O)[C@H](C)NC(=O)CCCCc4cccc(c4)CCCCNC(=O)[C@@H]4CCCN4C2=O)C(=O)N[C@@H](Cc2c[nH]c4ccc(F)cc24)C(=O)N3)cc1 [Compound 497] (cyclo(A[dA]C[Trp(5-F)]CTY(Me)P[X13]); linker 3-5 via mXylylene) | 100 to 1000 nM |  |  |  | 100 to 1000 nM
3 | C[C@@]12CCCN1C(=O)[C@H](Cc1ccc(O)cc1)NC(=O)[C@H](Cc1c[nH]cn1)NC(=O)[C@H](CC(=O)O)NC(=O)[C@H](Cc1c[nH]c3ccc(F)cc13)NC(=O)[C@H](Cc1c[nH]c3ccc(F)cc13)NC(=O)CNC(=O)C1(CC1)NC(=O)CCSCc1cccc(c1)CSC[C@@H](C(N)=O)NC2=O [Compound 281] ([Mpa][Ac3c]G[Trp(5-F)][Trp(5-F)]DHY[αMeP]C-NH2; linker 1-10 via mXylylene) | 100 to 1000 nM |  |  |  | 0.1 to 100 nM
4 | COc1ccc(C[C@@H]2NC(=O)[C@H]([C@@H](C)O)NC(=O)[C@@H]3C[C@H](F)CN3C(=O)[C@H](Cc3c[nH]c4ccc(F)cc34)NC(=O)[C@H](Cc3c[nH]c4ccc(F)cc34)NC(=O)[C@@H](C)NC(=O)[C@H](CCCCN)NC(=O)CCC/C=C\Cc3ccc(cc3)C[C@@H](C(N)=O)NC(=O)[C@]3(C)CCCN3C2=O)cc1 [Compound 132] | 21000 to 50000 nM |  |  |  | 21000 to 50000 nM
5 | COc1ccc(C[C@@H]2NC(=O)[C@H](Cc3cnc[nH]3)NC(=O)[C@H](CC(=O)O)NC(=O)[C@H](Cc3c[nH]c4ccc(F)cc34)NC(=O)[C@H](Cc3c[nH]c4ccc(F)cc34)NC(=O)[C@H](C)NC(=O)[C@H](NC(C)=O)CCCc3cn(nn3)-c3ccc(cc3)C[C@@H](C(N)=O)NC(=O)[C@]3(C)CCCN3C2=O)cc1 [Compound 395] | 21000 to 50000 nM |  |  |  | 21000 to 50000 nM

Now from value to compound, other results behind:

Row | IC50 (PCSK9 [1]; [4]) | IC50 (PCSK9 [2]; [5]) | Compound | IC50 (PCSK9 [1]; IC50, PCSK9 Alexa FRET Standard assay) | IC50 (PCSK9 [2]; IC50, Alexa FRET Plus) | IC50 [3]
6 | 0.11 to 100 nM | 0.1 to 100 nM | CCCCCCCCCCCCCCCC(=O)N[C@@H](CCC(=O)NCCOCCOCC(=O)NCCOCCOCC(=O)NCc1ccc(C[C@@H]2NC(=O)[C@@H](C)NC(=O)[C@H](CCCCN)NC(=O)CCSCc3cccc(c3)CSC[C@@H](C(N)=O)NC(=O)[C@]3(C)CCCN3C(=O)[C@H](Cc3ccc(O)cc3)NC(=O)[C@H](Cc3cnc[nH]3)NC(=O)[C@H](CC(=O)O)NC(=O)[C@H](Cc3c[nH]c4ccc(F)cc34)NC2=O)cc1)C(=O)O [Compound 453] ([Mpa]K[dA][Phe(4-CH2NH2)]([AEEA-AEEA-γGlu-Palmitoyl])[Trp(5-F)]DHY[αMeP]C-NH2; linker 1-10 via mXylylene) |  |  | 
7 | 21000 to 50000 nM | 500 to 5000 nM | CCCCCCCCCCCCCCCC(=O)N[C@@H](CCC(=O)NCCOCCOCC(=O)NCCOCCOCC(=O)NCCCC[C@@H]1NC(=O)CCSCc2cccc(c2)CSC[C@@H](C(N)=O)NC(=O)[C@]2(C)CCCN2C(=O)[C@H](Cc2ccc(O)cc2)NC(=O)[C@H](Cc2cnc[nH]2)NC(=O)[C@H](CC(=O)O)NC(=O)[C@H](Cc2c[nH]c3ccc(F)cc23)NC(=O)[C@H](Cc2c[nH]c3ccc(F)cc23)NC(=O)[C@@H](C)NC1=O)C(=O)O [Compound 456] ([Mpa]K([AEEA-AEEA-γGlu-Palmitoyl])[dA][Trp(5-F)][Trp(5-F)]DHY[αMeP]C-NH2; linker 1-10 via mXylylene) |  |  | 
8 | 0.11 to 100 nM |  | CC[C@@]12CCCN1C(=O)[C@H](Cc1ccc(O)cc1)NC(=O)[C@H](Cc1cnc[nH]1)NC(=O)[C@H](CC(=O)O)NC(=O)[C@H](Cc1c[nH]c3ccc(F)cc13)NC(=O)[C@H](Cc1c[nH]c3ccc(F)cc13)NC(=O)CNC(=O)[C@H](CCCCN)NC(=O)CCSCc1cccc(c1)CSC[C@@H](C(N)=O)NC2=O [Compound 378] ([Mpa]KG[Trp(5-F)][Trp(5-F)]DHY[X23]C-NH2; linker 1-10 via mXylylene) |  |  | 0.1 to 100 nM
9 | 0.11 to 100 nM |  | COc1ccc(C[C@@H]2NC(=O)[C@@H]3CCCCCCCO[C@H]4C[C@@H](C(=O)N3)N(C4)C(=O)[C@H](Cc3c[nH]c4ccc(F)cc34)NC(=O)[C@H](Cc3c[nH]c4ccc(F)cc34)NC(=O)[C@@H](C)NC(=O)[C@H](CCCCN)NC(=O)CCSCc3cccc(c3)CSC[C@@H](C(N)=O)NC(=O)[C@]3(C)CCCN3C2=O)cc1 [Compound 511] |  |  | 100 to 1000 nM

Reference: patent US11530244B2, “Cyclic polypeptides for PCSK9 inhibition” (priority 2018, dated 2022)
